Key:
[1] = Inhibition of CCR5-mediated HIV-1 Bal entry in human GHOST CCR5 cells assessed as decrease in viral reverse transcriptase activity by measuring [3H]thymidine triphosphate incorporation measured after 60 to 90 mins by scintillation counting analysis
[2] = Inhibition of MOR-mediated HIV1 BaL01 infection in GFP-tagged human OPRM1 transfected TZM-bl cells co-expressing HIV1 - LTR assessed as inhibition of viral entry by measuring LTR-driven luciferase activity pretreated for 1 hr before infection measured after 2 to 3 days of infection
[3] = Inhibition of MOR-mediated HIV1 BaL01 infection in GFP-tagged human OPRM1 transfected TZM-bl cells co-expressing HIV1 - LTR assessed as inhibition of viral entry in presence of morphine by measuring LTR-driven luciferase activity pretreated for 1 hr before infection measured after 2 to 3 days of infection

| SMILES | EC50 [1] [nM] | EC50 [2] [nM] | EC50 [3] [nM] |
| --- | --- | --- | --- |
| Cc1nnc(C(C)C)n1C1C[C@H]2CC[C@@H](C1)N2CC[C@H](NC(=O)C1CCC(F)(F)CC1)c1ccc(NC(=O)COCC(=O)NCCCCCCCNC(=O)COCC(=O)N[C@@H]2CC[C@@]3(O)[C@H]4Cc5ccc(O)c6c5[C@@]3(CCN4CC3CC3)[C@H]2O6)cc1 (some centres undefined) | > 100000 |  |  |
| CC(C)c1nnc(CCNC(=O)COCC(=O)NCCCCCCCNC(=O)COCC(=O)N[C@@H]2CC[C@@]3(O)[C@H]4Cc5ccc(O)c6c5[C@@]3(CCN4CC3CC3)[C@H]2O6)n1C1C[C@H]2CC[C@@H](C1)N2CC[C@H](NC(=O)C1CCC(F)(F)CC1)c1ccccc1 (some centres undefined) | 93 | 368 | 247 |

Reference: BindingDB's records for doi:10.1021/acs.jmedchem.1c00408 (Virginia Commonwealth University, 2021)
